Measurements from article PMC10914731, “Homo-BacPROTAC-induced degradation of ClpC1 as a strategy against drug-resistant mycobacteria” (Nature Communications, 2024).
Several values for one entry are separate records, joined by “and”; a condition that tells them apart may be missing. Equal values may be shown once. Read-outs that look alike come from different tables or passages of the source.

Experiments:
[1] = tested on: Mtb H37Rv in THP-1 macrophages; test: Intracellular MIC assay in THP-1 macrophages; format: cell-based, Mycobacterium tuberculosis; parameters: Emax: unit not given here
[2] = tested on: Pseudomonas aeruginosa; test: MIC ESKAPES panel, Pseudomonas aeruginosa; format: cell-based
Protocol: Minimum inhibitory concentration (MIC) against ESKAPES panel of Gram positive and Gram negative pathogens (Enterococcus faecium, Staphylococcus aureus, Klebsiella pneumoniae, Acinetobacter baumannii, Pseudomonas aeruginosa, Enterobacter cloacae and Salmonella typhimurium [ESKAPES panel]) were determined at the FNDR by the standard broth dilution method [CLSI, M100]. […] Mueller Hinton broth (MHB) medium was used to grow ESKAPES panel strains. The individual cultures were added as 200 μL (inoculum of 3–7 × 10^5 cfu/ml) to the respective assay plates in each well to all columns, except the media control (200 μL of medium). […] The assay plates were incubated at 37 °C, and the results were noted on the 2nd day as turbidometric readout. The clear wells indicated inhibition of growth, while the turbid wells indicated uninhibited growth.

[3] = tested on: Mtb # 8673; test: microbe, parasite or virus in culture; format: cell-based
[4] = tested on: Mycobacterium abscessus; test: microbe, parasite or virus in culture; format: cell-based
[5] = in vivo; format: in vivo, BALB/cAnNCrl mice; details: mouse, in vivo, iv
Protocol: The in-life experimental procedures were conducted in strict compliance with German and European animal welfare legislation in an AAALAC-accredited facility. Male BALB/cAnNCrl mice (Charles River Laboratories Research Models and Services, 97633 Sulzfeld, Germany) were used. Animals were 9 weeks old at dosing with a body weight of 21.6–24.3 g. Animals were delivered free of pathogens according to FELASA recommendations with a health certificate provided by the breeder. Upon receipt, the state of health and sex was checked. Animals acclimatized for at least 5 days before the commencement of the in-life phase. During acclimation, animals were group-housed in individually ventilated cages, on birch wood granulate bedding with species-specific enrichment (nesting material, mouse igloo, gnawing wood). During experimental conduct, animals were housed in conventional cages with elevated grid floors. Grid floor was used to avoid contamination with test item material excreted via urine and feces and subsequent reuptake during fur grooming. No bedding and enrichment were provided except a cage divider, which can be used as a shelter. Animals always had unlimited access to food and water and received a pelleted, total pathogen-free maintenance diet and tap drinking water, sterilized by filter.
In case of incomplete dissolution, the formulation was filtered at 40 °C (non-pyrogenic sterile-R filter, 0.2 µm). All formulations were stirred warm until administration. Actual test item content was determined bioanalytically.
Male BALB/cAnNCrl mice (n = 3 per test item and administration route) received a bolus dose of the formulated test item(s) (1 mg/kg iv, 30 mg/kg po) at t = 0 h, and whole blood samples were collected subsequently (35 µl at 0.1 (iv) / 0.25 (po), 0.5, 1, 2, 4, 6 h; 600 µl at sacrifice after 24 h). Animals were euthanized by exsanguination in deep isoflurane anesthesia. Whole blood samples were immediately stored on ice at about 4 °C. Plasma was separated by centrifugation at approximately 10,000 × g for 5 m at +4 °C. Centrifugation of each blood sample was started within 10 m after collection. A single aliquot of at least 15 µL of plasma was prepared and immediately stored at −20 ± 5 °C.
Sample proteins were precipitated with ACN (1 + 12, v/v) containing internal standard, and supernatants analyzed by quantitative UPLC-MS/MS: Phenomenex Luna Omega C18, 2.1 × 50 mm, 1.6 µm, 40 °C, gradient between 10% - 90% ACN with 0.1% formic acid. LogD determination: Lipophilicity of the test items, expressed as chromLogD7.5, was assessed by measuring their chromatographic retention times on C18-material. The chromatographic retention versus logD7.5 values of a series of thirteen n-alkan-2-ones (2-butanone – 2-hexadecanone) served as lipophilicity calibration.

[6] = Microsomal stability, human; format: in vitro ADME; details: human, microsomes, pH 7.5
In short: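 Steps: incubate compound at 1 µmol/l with liver microsomes (0.5 mg/ml) plus 1 mM NADPH in pH 7.5 Tris-HCl buffer containing MgCl2 at 37 °C; stop aliquots over time with acetonitrile; centrifuge and measure remaining compound by LC-MS/MS; fit first-order decay and convert half-life to %Qh.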

[7] = tested on: non-replicating cells of Mtb H37Rv; format: cell-based, Mycobacterium tuberculosis
[8] = single well replicates, listed as 12 (UdSBI-4377)

With `COC(c1ccccc1)C1NC(=O)C(C)NC(=O)C(CC(C)CO)N(C)C(=O)C(Cc2cn(C)c3ccccc23)NC(=O)C(Cc2cn(CCCCCn3cc(CC4NC(=O)C(CC(C)C)N(C)C(=O)C(C(C)C)NC(=O)C(C(OC)c5ccccc5)NC(=O)C(C)NC(=O)C(CC(C)CO)N(C)C(=O)C(Cc5cn(C)c6ccccc56)NC4=O)nn3)nn2)NC(=O)C(CC(C)C)N(C)C(=O)C(C(C)C)NC1=O` (centres unmarked) [Compound 12] the Emax [1] was 0.28, the MIC ([2]; Gram-Negative Bacteria, replicates 1-3, listed as 12 (UdSBI-4377)) was >50 µM and the MIC ([2]; Pseudomonas aeruginosa, Gram negative, n = 3 well replicates) was > 50 µM. The MIC ([2]; Pseudomonas aeruginosa, Gram-Negative Bacteria, replicates 1-3) was > 99 µg/mL, the MIC ([3]; Mycobacterium tuberculosis, mean, n = 2 well replicates) was < 0.1 µM and < 0.2 µg/mL and the MIC ([3]; Mycobacterium tuberculosis, single well replicates) was < 0.1 µM and < 0.19 µg/mL. The MIC [3, 8] was <0.1 µM, the “MIC Mtb # 8673” value [3, 8] was <0.19 µg/mL and the “MIC (µg/ml) Mycobacterium abscessus” value ([4]; Experiment 2, three replicate columns) was >99.02 µg/mL. The MIC ([4]; Experiment 2, three replicate columns, read-out: MIC (µM) Mycobacterium abscessus) was >50 µM, the MIC ([4]; Mycobacteroides abscessus, Experiment 1, read-out: MIC Mycobacterium abscessus) was > 50 µM and > 99 µg/mL and the MIC ([4]; Mycobacteroides abscessus, Experiment 2, three replicate columns, read-out: MIC (µM) Mycobacterium abscessus) was > 50 µM. For the same molecule, the MIC ([4]; Mycobacteroides abscessus, Experiment 2, three replicate columns, read-out: MIC (µg/ml) Mycobacterium abscessus) was > 99 µg/mL, the MIC ([4]; Mycobacteroides abscessus, mean ± SD, read-out: MIC Mycobacterium abscessus) was > 50 µM and the Cl ([5]; male, BALB/cAnNCrl, 1 mg/kg) was 4.14 mL/min/kg. The T1/2 ([5]; male, BALB/cAnNCrl, 1 mg/kg) was 1.37 h, the VSS ([5]; male, BALB/cAnNCrl, 1 mg/kg) was 0.42 L/kg and the AUC [5] was 3870 h nM/(nmol kg-1). The Cmax [5] was 3270 nM/(nmol kg-1), the “Plasma concentration 24 h” value [5] was “BLOQ” and the “Microsomal Stability Human” value [6] was < 24 %Qh. The “Microsomal Stability Human QH” value [6] was <24.4% and the “inhibitory activity on non-growing Mtb H37Rv” value [7] was “lost their inhibitory activity”.
